Laboratory results published in patent publication US20220184071A1, “GEPOTIDACIN FOR USE IN THE TREATMENT OF BACTERIAL URINARY TRACT INFECTIONS” (GlaxoSmithKline Intellectual Property Development Limited, priority 2019, published 2022).
In brackets after ≈: the same amount, converted by molar mass. Read-outs that look alike come from different tables or passages of the source.

Columns and labels:
[1] = MIC by CLSI broth microdilution, Example 1 Method 1, gram-negative aerobic organisms; type: cell-based; conditions: at least one strain of every organism listed; salt of gepotidacin (such as mesylate salt)
Description: Antimicrobial activity was determined by broth microdilution using the CLSI recommended procedure.

S. saprophyticus = assay: MIC by CLSI agar dilution, Example 1 Method 2; type: cell-based, Staphylococcus saprophyticus
Description: (§1) Antimicrobial activity was determined in a second study by […] using the CLSI recommended procedure in serial two-fold dilutions and the minimum inhibitory concentration (MIC) was determined as the lowest concentration of the compound that inhibited visible growth.
This study tested gepotidacin by CLSI agar dilution against 51 isolates of S. saprophyticus collected between 2005-2018.
Amikacin, ceftazidime, colistin, fosfomycin, levofloxacin, meropenem, nitrofurantoin and trimethoprim-sulfamethoxazole were included as comparators. MICs for and comparators were determined by agar dilution according CLSI methods.
(§2) MICs were determined according to CLSI agar dilution guidelines.

N. gonorrhoeae = assay: MIC by CLSI agar dilution, Example 1 Method 2; type: cell-based, Neisseria gonorrhoeae; conditions: n = 95
Description: as §1, §2

[2] = Pharmacokinetics in infected mice (plasma, kidney, thigh; PopPK); type: in vivo, mouse
Description: PK and PD studies using gepotidacin were conducted in murine (male CD-1 mice) thigh and kidney infections. The administered doses ranged from 1 to 200 mg/kg SC every 6 hours starting 1h post infection. Infected tissues were evaluated for bacterial burden at 24 h post infection (baseline controls at 1 h post infection).
Plasma and tissue samples (kidney or thigh homogenates) were collected at 15, 30, 60, 120, 240 and 360 minutes. A population PK (PopPK) model was built in NONMEM using plasma exposures.
Specific pathogen free male CD-1 mice weighing ˜27 g were used throughout the PK and PD studies. For most studies, mice were rendered neutropenic with two IP doses of cyclophosphamide on day −4 (150 mg/kg) and day −1 (100 mg/kg). Plasma and tissue samples (kidney and/or thigh) were collected at 15, 30, 60, 120, 240 and 360 minutes post dose from competent or neutropenic infected mice (N=3/group) following a single subcutaneous (SC) dose of 6.25-200 mg/kg. Samples were assayed by LC/MS/MS; the lower limit of quantification was 0.05 ug/mL.
Non-compartmental Analysis (NCA): plasma NCA was conducted using Phoenix WinNonLin 6.3 (Pharsight) with the linear up log down method.
Population Pharmacokinetics (PopPK): • Total drug concentrations in plasma were converted to free drug values based on protein binding of 24% in mice. • A PopPK model was built to describe the drug exposure in plasma over time using NONMEM (7.3) and the software R (version 3.4.0) for diagnostic plots. • The final model was used to simulate exposures at the multiple dose levels evaluated in the efficacy studies.

Morganella morganii = assay: MIC, Example 5 Method 1; type: cell-based; conditions: at least one isolate tested
[3] = test system: Staphylococcus epidermidis; assay: MIC by CLSI broth microdilution in CAMHB and urine, Example 5 Method 2; type: cell-based; conditions: for Mean MIC: n = 4; for MIC: Staphylococcus epidermidis
Description: The compounds were tested in serial two-fold dilutions and the minimum inhibitory concentration (MIC) was determined as the lowest concentration of the compound that inhibited visible growth.
In particular, gepotidacin was tested against 4 strains of Staphylococcus epidermidis from the collection of isolates at Laboratory Specialists, Inc., Westlake, Ohio.
Levofloxacin was included as the comparator in the study to determine the effect of urine on the in vitro activity of gepotidacin against Staphylococcus epidermidis. MICs were determined by broth microdilution according CLSI methods.
The data shown in the table below are results from an in vitro study conducted with the same S. epidermidis isolates described above, to determine the effect of urine on the in vitro activity of gepotidacin and levofloxacin against S. epidermidis. Study strains were tested for MICs according to reference CLSI broth microdilution method using cation-adjusted Mueller Hinton Broth (CAMHB) and with the addition of 25%, 50% and 100% urine (not pH adjusted, pH 6.42) and 100% urine (pH adjusted, 7.31 and 8.07).

Bilophila wadsworthia = assay: MIC by CLSI agar dilution, Example 6 Method 1; type: cell-based; conditions: 26 isolates, read-out: Gepotidacin MIC90
Description: (§3) Antimicrobial activity was determined by agar dilution using the Clinical and Laboratory Standards Institute (CLSI) recommended procedure.
(§4) The compounds were tested in serial two-fold dilutions and the minimum inhibitory concentration (MIC) was determined as the lowest concentration of the compound that inhibited visible growth. Gepotidacin was tested against 333 gram-negative anaerobic and 203 gram-positive anaerobic isolates collected from clinical samples in North America and Europe from 2000 to 2017; the majority collected from 2013 to 2016.
(§5) Ceftriaxone, clindamycin, imipenem, metronidazole, moxifloxacin and piperacillin/tazobactam were included as comparators.

[4] = test system: all the gram-negative anaerobe organisms combined; assay: MIC by CLSI agar dilution, Example 6 Method 1; type: cell-based; conditions: all gram-negative anaerobes combined; read-out: overall MIC90
Description: as §3, §4, §5

[5] = test system: gram-positive anaerobe organisms combined; assay: MIC by CLSI agar dilution, Example 6 Method 1; type: cell-based; conditions: gram-positive anaerobes combined; read-out: overall MIC90
Description: as §3, §4, §5

Compound: O=c1ccc2ncc(=O)n3c2n1C[C@H]3CN1CCC(NCc2cc3c(cn2)OCCC3)CC1 [gepotidacin, (2R)-2-({4-[(3,4-dihydro-2H-pyrano[2,3-c]pyridin-6-ylmethyl)amino]-1-piperidinyl}methyl)-1,2-dihydro-3H,8H-2a,5,8a-triazaacenaphthylene-3,8-dione]
- MIC [1]: ≤ 8 µg/mL
- % of isolates with MIC ≤0.125 mg/L (S. saprophyticus; 51 isolates): 100%
- MIC90 (S. saprophyticus; Staphylococcus saprophyticus, 51 isolates collected 2005-2018, read-out: MIC90): 0.125 µg/mL (≈ 0.279 µM)
- MIC (S. saprophyticus; Staphylococcus saprophyticus, 51 isolates, read-out: MICs for all S. saprophyticus): ≤ 0.125 µg/mL
- MIC50 (S. saprophyticus; Staphylococcus saprophyticus, n = 51): ≤ 0.06 µg/mL
- MIC90 (S. saprophyticus; n = 51): 0.125 µg/mL (≈ 0.279 µM)
- Number of Isolates at Gepotidacin MIC ≤0.25 mg/L (S. saprophyticus; n = 51): 51
- MIC50 (N. gonorrhoeae; Neisseria gonorrhoeae): 0.25 µg/mL (≈ 0.557 µM)
- MIC90 (N. gonorrhoeae; Neisseria gonorrhoeae): 1 µg/mL (≈ 2.23 µM)
- Number of Isolates at Gepotidacin MIC 0.5 mg/L (N. gonorrhoeae): 6
- Number of Isolates at Gepotidacin MIC 1 mg/L (N. gonorrhoeae): 6
- Number of Isolates at Gepotidacin MIC 2 mg/L (N. gonorrhoeae): 4
- Number of Isolates at Gepotidacin MIC ≤0.25 mg/L (N. gonorrhoeae): 79
- duration of infusion ([2]; PopPK final parameter estimate, plasma): 0.262 h
- AUC0-6 in kidney, fold higher than in plasma ([2]; SC dosing, infected mice): 4- to 5 fold
- AUC0-6 in thigh relative to plasma ([2]; SC dosing, infected mice): approximately half of plasma
- clearance ([2]; male, CD-1, mouse, subcutaneous, PopPK final parameter estimate, plasma): 1.73 mL/min
- Vd ([2]; male, CD-1, mouse, subcutaneous, PopPK final parameter estimate, plasma, read-out: volume of distribution): 0.151 L
- fraction unbound ([2]; mouse, plasma, mice, read-out: protein binding (converted)): 0.76
- MIC (Morganella morganii): 4 µg/mL (≈ 8.92 µM)
- MIC range ([3]; 2 isolates of methicillin-resistant S. epidermidis): 0.25 to 0.5 µg/mL
- Mean Dilution Difference ([3]; 25% Urine (pH 7.09) vs CAMHB): −0.75
- Mean difference ([3]; 25% Urine (pH 7.09) vs CAMHB): −0.17
- N(%) ± 1 dilution ([3]; 25% Urine (pH 7.09) vs CAMHB): 4 (100%)
- N(%) ± 2 dilution ([3]; 25% Urine (pH 7.09) vs CAMHB): 4 (100%)
- Mean MIC ([3]; 25% Urine (pH 7.09)): 0.25 µg/mL
- Mean Dilution Difference ([3]; 50% Urine (6.99) vs CAMHB): −1.01
- Mean difference ([3]; 50% Urine (6.99) vs CAMHB): −0.21
- N(%) ± 1 dilution ([3]; 50% Urine (6.99) vs CAMHB): 4 (100%)
- N(%) ± 2 dilution ([3]; 50% Urine (6.99) vs CAMHB): 4 (100%)
- Mean MIC ([3]; 50% Urine (6.99)): 0.21 µg/mL
- Mean Dilution Difference ([3]; 100% Urine (pH 6.42) vs CAMHB): −0.26
- Mean difference ([3]; 100% Urine (pH 6.42) vs CAMHB): −0.07
- N(%) ± 1 dilution ([3]; 100% Urine (pH 6.42) vs CAMHB): 4 (100%)
- N(%) ± 2 dilution ([3]; 100% Urine (pH 6.42) vs CAMHB): 4 (100%)
- Mean MIC ([3]; 100% Urine (pH 6.42)): 0.35 µg/mL
- Mean Dilution Difference ([3]; 100% Urine (pH 7.31) vs CAMHB): 0.25
- Mean difference ([3]; 100% Urine (pH 7.31) vs CAMHB): 0.08
- N(%) ± 1 dilution ([3]; 100% Urine (pH 7.31) vs CAMHB): 4 (100%)
- N(%) ± 2 dilution ([3]; 100% Urine (pH 7.31) vs CAMHB): 4 (100%)
- Mean MIC ([3]; 100% Urine (pH 7.31)): 0.5 µg/mL
- Mean Dilution Difference ([3]; 100% Urine (pH 8.07) vs CAMHB): 0.00
- Mean difference ([3]; 100% Urine (pH 8.07) vs CAMHB): 0.00
- N(%) ± 1 dilution ([3]; 100% Urine (pH 8.07) vs CAMHB): 4 (100%)
- N(%) ± 2 dilution ([3]; 100% Urine (pH 8.07) vs CAMHB): 4 (100%)
- Mean MIC ([3]; 100% Urine (pH 8.07)): 0.42 µg/mL
- mean dilution differences (range) ([3]; 100% urine (conclusion)): 0 to −0.26
- Mean MIC ([3]; CAMHB (ref. method, pH 7.2)): 0.42 µg/mL
- MIC ([3]; 2 isolates of methicillin-susceptible S. epidermidis, read-out: MIC): 0.5 µg/mL (≈ 1.11 µM)
- MIC ([3]; at least one strain of methicillin-susceptible or methicillin-resistant S. epidermidis, read-out: MIC): ≤ 0.5 µg/mL
- MIC ([3]; read-out: MICs, methicillin-susceptible and methicillin-resistant isolates tested (conclusion), heading: MICs): < 0.5 µg/mL
- mean dilution differences (range) ([3]; addition of urine vs CAMHB): 0 to −1.01
- MIC fold greater than the levofloxacin MIC ([3]; each of the methicillin-resistant S. epidermidis): 4 fold
- MIC fold greater than the levofloxacin MIC ([3]; methicillin-susceptible S. epidermidis): 2 fold
- MIC90 (Bilophila wadsworthia): 0.5 µg/mL (≈ 1.11 µM)
- MIC90 [4]: 4 µg/mL
- MIC90 [5]: 2 µg/mL
